This is an account of results in ChEMBL document CHEMBL1145709, “Seven New Polyacetylene Derivatives, Showing Both Potent Metamorphosis-Inducing Activity in Ascidian Larvae and Antifouling Activity Against Barnacle Larvae, from the Marine Sponge Callyspongia truncata” (1997).

The test system of one test is Amphibalanus amphitrite. Nature of the test: Antifouling activity against Balanus amphitrite larvae. Type of test: functional. As to conditions: for EC50: Amphibalanus amphitrite, read-out: ED50 (the source's name).
A further test deals with Halocynthia roretzi. The test is described as follows: Induction of metamorphosis in ascidian Halocynthia roretzi. Type of test: functional. The following applies: for EC50: Halocynthia roretzi, read-out: ED50 (the source's name).

In brackets after ≈: the same amount, converted by molar mass.

With `C#CC#CCCCC#CC#C/C=C\CCCC/C=C\C#C` [CALLYPENTAYNE], in the test on Amphibalanus amphitrite, the EC50 came out at 0.25 µg/mL (≈ 0.918 µM).
`C#C/C=C\CCCC/C=C\C#CC#CCCCC#CC#C[C@H](COS(=O)(=O)[O-])OS(=O)(=O)[O-].[Na+].[Na+]` [CALLYSPONGIN A]: the EC50 with Halocynthia roretzi amounted to 3.9 µg/mL; in the test with Amphibalanus amphitrite, 0.13 µg/mL.
As to `C#C/C=C\CCCC/C=C\C#CC#CCCCC#CC#C[C@@H](O)COS(=O)(=O)[O-].[Na+]` [CALLYSPONGIN B], the ED100 in the test with Halocynthia roretzi stood at 4.1 µg/mL; with Amphibalanus amphitrite, 0.25 µg/mL.
For the molecule `C#C/C=C\CCCC#CC#CCCCCCC/C=C\C#C` [CALLYTETRAYNE], the EC50 in the test with Halocynthia roretzi is 30 µg/mL (≈ 109 µM); with Amphibalanus amphitrite, 0.25 µg/mL (≈ 0.904 µM).
Turning to `C#C/C=C\CCCC/C=C\C#CC#CC(O)CCC#CC#CC(O)CO` (centres undefined) [CALLYTRIOL A], the EC50 was 0.43 µg/mL (≈ 1.23 µM) in the test with Halocynthia roretzi and 1.3 µg/mL (≈ 3.73 µM) in the test with Amphibalanus amphitrite.
For `C#C/C=C\CCCC(O)/C=C\C#CC#CCCCC#CC#CC(O)CO` (centres undefined) [CALLYTRIOL B], the EC50 came out at 0.63 µg/mL (≈ 1.81 µM) in the test with Halocynthia roretzi and 1.3 µg/mL (≈ 3.73 µM) in the test with Amphibalanus amphitrite.
`C#C/C=C\C(O)CCC/C=C\C#CC#CCCCC#CC#CC(O)CO` (centres undefined) [CALLYTRIOL C]: the EC50 with Halocynthia roretzi came to 0.24 µg/mL (≈ 0.689 µM); with Amphibalanus amphitrite it was 0.13 µg/mL (≈ 0.373 µM).
As for `C#C/C=C/C(O)CCC/C=C\C#CC#CCCCC#CC#CC(O)CO` (centres undefined) [CALLYTRIOL D], the EC50 stood at 0.38 µg/mL (≈ 1.09 µM) in the test on Halocynthia roretzi and 1.3 µg/mL (≈ 3.73 µM) in the test on Amphibalanus amphitrite.
The like results for `C#C/C=C\CCCC(O)/C=C/C#CC#CCCCC#CC#CC(O)CO` (centres undefined) [CALLYTRIOL E] were, in that order, 0.63 µg/mL (≈ 1.81 µM) and 0.13 µg/mL (≈ 0.373 µM).
Regarding `C#C/C=C\CCCC/C=C\C#CC#CCCCC#CC#C[C@@H](O)CO` [SIPHONODIOL], the EC50 with Halocynthia roretzi was 4.5 µg/mL (≈ 13.5 µM); in the test on Amphibalanus amphitrite it was 0.25 µg/mL (≈ 0.752 µM).
